Source: patent publication US8536187B2 (Gilead Sciences, Inc., priority 2008, dated 2013)

What was measured:
[1] = CC50 assay (CellTiter-Glo) in Huh-7 HCV replicon cells; type: cell-based; conditions: human, Table 1, 3 days incubation
Protocol: (§1) The anti-HCV activity of the pyrido[3,2-d]pyrimidine derivatives of this invention was tested in a human hepatoma Huh-7 cell line harboring a HCV replicon. The assay comprised the following steps: • Step 1: compound preparation and serial dilution: serial dilution is performed in 50% DMSO in a 384-well plate. A solution containing a compound at 100-fold concentration of the starting final serial dilution concentration was prepared in 50% DMSO and added to the pre-specified wells in column 1 of a polypropylene 384-well plate. The plate was then placed on a Precision 2000 Workstation to start the serial dilution. After the serial dilution, a volume of 2 μL of the solution was transferred from the 384-well plate to a 96-well cell culture plate containing 100 μL of cell media on a Biomek FX Workstation. The DMSO concentration in the final assay condition was 0.5% after cells are added to the plate and the total volume in each well is brought to 200 μL. • Step 2: to each well of the serial dilution plate prepared above, 100 μL of cell media containing 6000 suspended Huh-7 HCV replicon cells was added with a Multidrop workstation. The plates were incubated for 3 days at 37° C. with 5% CO2. • Step 3: detection: • a) for the EC50 assay, the media in a 96-well cell culture plate was aspirated with a Biotek EL405 plate-washer. A volume of 200 μL of a solution containing a 1:1 mixture of cell-lysis buffer (Promega, Luciferase Cell Culture Lysis 5× Reagent, cat. #E1531) and luciferase substrate solution (Promega, Luciferase Assay, cat.# E4550) was added to each well of the plate with Multidrop. The plate was incubated for 30 minutes at room temperature before the luminescence signal was measured with a TopCount plate-reader. • b) for the CC50 assay, a volume of 100 μL of pre-mixed CellTiter-Glo (Promega, cat.# G7572) solution is added directly to the cell culture in each well of the plate and the luminescence signal is measured with a TopCount plate-reader after 10 minutes of incubation at room temperature.

[2] = system: HCV replicon in human hepatoma Huh-7 cell line; assay: Anti-HCV replicon assay, EC50 (luciferase luminescence); type: cell-based; conditions: Hepatitis C virus, Huh-7, 72 h
Protocol: as §1

Fc1ccc(-c2ccc3nc(NCc4cccc(-n5cncn5)c4)nc(NCC(F)(F)F)c3n2)cc1 [Example 1, 6-(4-Fluoro-phenyl)-N2-(3-[1,2,4]-triazol-1-yl-benzyl)-N4-(2,2,2-trifluoro-ethyl)-pyrido[3,2-d]pyrimidine-2,4-diamine]
CC50 at 3 days [1]: > 25000 nM
EC50 [2]: 100 to 250 nM

Fc1ccc(-c2ccc3nc(NCc4cccc(-n5cccn5)c4)nc(NCC(F)(F)F)c3n2)cc1 [Example 2, 6-(4-Fluoro-phenyl)-N2-(3-pyrazol-1-yl-benzyl)-N4-(2,2,2-trifluoro-ethyl)-pyrido[3,2-d]pyrimidine-2,4-diamine]
CC50 at 3 days [1]: > 25000 nM
EC50 [2]: < 100 nM

NS(=O)(=O)c1ccc(CNc2nc(NCC(F)(F)F)c3nc(-c4ccc(F)cc4)ccc3n2)cc1F [Example 3, 2-Fluoro-4-{[6-(4-fluoro-phenyl)-4-(2,2,2-trifluoro-ethylamino)-pyrido[3,2-d]pyrimidin-2-ylamino]-methyl}-benzenesulfonamide]
CC50 at 3 days [1]: > 25000 nM
EC50 [2]: 250 to 2000 nM

Cc1cc(S(N)(=O)=O)ccc1CNc1nc(NCC(F)(F)F)c2nc(-c3ccc(F)cc3)ccc2n1 [Example 4, 4-{[6-(4-Fluoro-phenyl)-4-(2,2,2-trifluoro-ethylamino)-pyrido[3,2-d]pyrimidin-2-ylamino]-methyl}-3-methyl-benzenesulfonamide]
CC50 at 3 days [1]: > 25000 nM
EC50 [2]: 250 to 2000 nM

NS(=O)(=O)c1ccc(CNc2nc(NCC(F)(F)F)c3nc(-c4ccc(F)cc4)ccc3n2)cc1Cl [Example 5, 2-Chloro-4-{[6-(4-fluoro-phenyl)-4-(2,2,2-trifluoro-ethylamino)-pyrido[-3,2-d]pyrimidin-2-ylamino]-methyl}-benzenesulfonamide]
CC50 at 3 days [1]: > 25000 nM
EC50 [2]: < 100 nM

COc1ccc(CNc2nc(NCC(F)(F)F)c3nc(-c4ccc(F)cc4)ccc3n2)cc1S(N)(=O)=O [Example 6]
CC50 at 3 days [1]: > 25000 nM
EC50 [2]: 100 to 250 nM

NS(=O)(=O)c1cc(CNc2nc(NCC(F)(F)F)c3nc(-c4ccc(F)cc4)ccc3n2)ccc1F [Example 7, 2-Fluoro-5-{[6-(4-fluoro-phenyl)-4-(2,2,2-trifluoro-ethylamino)-pyrido[3,2-d]pyrimidin-2-ylamino]-methyl}-benzenesulfonamide]
CC50 at 3 days [1]: 10000 to 25000 nM
EC50 [2]: < 100 nM

NS(=O)(=O)c1cc(CNc2nc(NCC(F)(F)F)c3nc(-c4ccc(F)cc4)ccc3n2)cc(C(F)(F)F)c1 [Example 8, 3-{[6-(4-Fluoro-phenyl)-4-(2,2,2-trifluoro-ethylamino)-pyrido[3,2-d]pyrimidin-2-ylamino]-methyl}-5-trifluoromethyl-benzenesulfonamide]
CC50 at 3 days [1]: > 25000 nM
EC50 [2]: 250 to 2000 nM

NS(=O)(=O)c1ccc(CNc2nc(NCC(F)(F)F)c3nc(-c4ccc(F)cc4)ccc3n2)cc1C(F)(F)F [Example 9, 4-{[6-(4-Fluoro-phenyl)-4-(2,2,2-trifluoro-ethylamino)-pyrido[3,2-d]pyrimidin-2-ylamino]-methyl}-2-trifluoromethyl-benzenesulfonamide]
CC50 at 3 days [1]: > 25000 nM
EC50 [2]: 250 to 2000 nM

Cc1cc(S(N)(=O)=O)ccc1C(C)Nc1nc(NCC(F)(F)F)c2nc(-c3ccc(F)cc3)ccc2n1 (centres unmarked) [Example 10, 4-{1-[6-(4-Fluoro-phenyl)-4-(2,2,2-trifluoro-ethylamino)-pyrido[3,2-d]pyrimidin-2-ylamino]-ethyl}-3-methyl-benzenesulfonamide]
CC50 at 3 days [1]: < 10000 nM
EC50 [2]: 100 to 250 nM

CC[C@@H](Nc1nc(NCC(F)(F)F)c2nc(-c3ccc(F)cc3)ccc2n1)c1ccccc1S(N)(=O)=O [Example 11, (R)-2-{1-[6-(4-Fluoro-phenyl)-4-(2,2,2-trifluoro-ethylamino)-pyrido[3,2-d]pyrimidin-2-ylamino]-propyl}-benzenesulfonamide]
CC50 at 3 days [1]: > 25000 nM
EC50 [2]: 250 to 2000 nM

CC[C@@H](Nc1nc(NCC(F)(F)F)c2nc(-c3ccc(F)cc3)ccc2n1)c1ccc(S(N)(=O)=O)cc1 [Example 12, (R)-4-{1-[6-(4-Fluoro-phenyl)-4-(2,2,2-trifluoro-ethylamino)-pyrido[3,2-d]pyrimidin-2-ylamino]-propyl}-benzenesulfonamide]
CC50 at 3 days [1]: 10000 to 25000 nM
EC50 [2]: 250 to 2000 nM

C[C@@H](Nc1nc(OC2CC2)c2nc(-c3ccc(F)cc3)ccc2n1)c1ccc(S(N)(=O)=O)cc1 [Example 13, (R)-4-{1-[6-(4-Fluoro-phenyl)-4-cyclopropoxy-pyrido[3,2-d]pyrimidin-2-ylamino]-ethyl}-benzenesulfonamide]
CC50 at 3 days [1]: 10000 to 25000 nM
EC50 [2]: 100 to 250 nM

CS(=O)(=O)c1cccc(-c2ccc3nc(NCc4cccc(S(N)(=O)=O)c4)nc(NCC(F)(F)F)c3n2)c1 [Example 14, 3-{[6-(3-Methanesulfonyl-phenyl)-4-(2,2,2-trifluoro-ethylamino)-pyrido[3,2-d]pyrimidin-2-ylamino]-methyl}-benzenesulfonamide]
CC50 at 3 days [1]: 10000 to 25000 nM
EC50 [2]: < 100 nM

CS(=O)(=O)c1cccc(-c2ccc3nc(NCc4ccc(S(N)(=O)=O)cc4)nc(NCC(F)(F)F)c3n2)c1 [Example 15, 4-{[6-(3-Methanesulfonyl-phenyl)-4-(2,2,2-trifluoro-ethylamino)-pyrido[3,2-d]pyrimidin-2-ylamino]-methyl}-benzenesulfonamide]
CC50 at 3 days [1]: > 25000 nM
EC50 [2]: < 100 nM

CS(=O)(=O)c1cccc(-c2ccc3nc(NCc4cccc(-n5cncn5)c4)nc(NCC(F)(F)F)c3n2)c1 [Example 16, 6-(3-Methanesulfonyl-phenyl)-N2-(3-[1,2,4]-triazol-1-yl-benzyl)-N4-(2,2,2-trifluoro-ethyl)-pyrido[3,2-d]pyrimidine-2,4-diamine]
CC50 at 3 days [1]: > 25000 nM
EC50 [2]: < 100 nM

C[C@@H](Nc1nc(NCC(F)(F)F)c2nc(-c3cccc(S(C)(=O)=O)c3)ccc2n1)c1ccc(S(N)(=O)=O)cc1 [Example 17, (R)-4-{1-[6-(3-Methanesulfonyl-phenyl)-4-(2,2,2-trifluoro-ethylamino)-pyrido[3,2-d]pyrimidin-2-ylamino]-ethyl}-benzenesulfonamide]
CC50 at 3 days [1]: 10000 to 25000 nM
EC50 [2]: < 100 nM

CC(Nc1nc(NCC(F)(F)F)c2nc(-c3cccc(S(C)(=O)=O)c3)ccc2n1)c1ccc(-n2cncn2)cc1 (centres unmarked) [Example 19, 6-(3-Methanesulfonyl-phenyl)-N2-[1-(4-[1,2,4]triazol-1-yl-phenyl)-ethyl]-N4-(2,2,2-trifluoro-ethyl)-pyrido[3,2-d]pyrimidine-2,4-diamine]
CC50 at 3 days [1]: 10000 to 25000 nM
EC50 [2]: < 100 nM

COc1ccc(-c2ccc3nc(NCc4cccc(-n5cncn5)c4)nc(NCC(F)(F)F)c3n2)cc1S(C)(=O)=O [Example 20]
CC50 at 3 days [1]: > 25000 nM
EC50 [2]: < 100 nM

CS(=O)(=O)c1cc(-c2ccc3nc(NCc4ccc(S(N)(=O)=O)cc4)nc(NCC(F)(F)F)c3n2)ccc1F [Example 21, 4-{[6-(4-Fluoro-3-methanesulfonyl-phenyl)-4-(2,2,2-trifluoro-ethylamino)-pyrido[3,2-d]pyrimidin-2-ylamino]-methyl}-benzenesulfonamide]
CC50 at 3 days [1]: > 25000 nM
EC50 [2]: < 100 nM

COc1ccc(-c2ccc3nc(NCc4ccc(S(N)(=O)=O)cc4)nc(NCC(F)(F)F)c3n2)cc1C(N)=O [Example 226, 4-((6-(3-(aminocarbonyl)l-4-methoxyphenyl)-4-(2,2,2-trifluoroethylamino)pyrido [3,2-d]pyrimidin-2-ylamino)methyl)benzene-sulfonamide]
EC50 [2]: < 100 nM
